In patent publication US12421272B2, “Artificial nucleic acid, production method therefor, and use thereof” (SYSMEX CORPORATION, priority 2019, dated 2025):
Where “and” joins values, the source holds several entries; their conditions need not be identical. Equal entries are not always repeated.

What was measured:
Format in all cases: binding
[1] = tested on: single-stranded DNA (5′-d(AGCAAAAAACGC)-3′; SEQ ID NO: 6); experiment: Melting temperature (Tm), capability of forming double strand with single-stranded DNA; conditions: sense strand 5′-d(AGCAAAAAACGC)-3′; 100 nM NaCl, 10 mM sodium phosphate buffer (pH 7.2), 4 μM of each strand; 0.5° C./min.
[2] = tested on: single-stranded RNA (5′-r(AGCAAAAAACGC)-3′; SEQ ID NO: 7); conditions: pH 7.2
[3] = tested on: Target double-stranded DNA (DNA-1), 203-bp PCR product from pBR322 plasmid; experiment: Strand invasion in the presence of SSB, gel shift assay; conditions: SSB 6 μM, oligonucleotide 200 nM, DNA-1 30 nM, 37° C. for 120, 60 or 30 minutes
Text: (§1) Target double-stranded DNA molecules are as follows. • (DNA-1) A 203-bp PCR product produced using pBR322 plasmid (commercially available product) as a template (SEQ ID NOs: 23 and 24). • (DNA-2) A 203-bp PCR product produced using artificial gene T1825G (commercially available product) based on pBR322 plasmid as a template. • (DNA-3) A 203-bp PCR product produced using artificial gene T1825C (commercially available product) based on pBR322 plasmid as a template. • (DNA-4) A 203-bp PCR product produced using artificial gene T1825A (commercially available product) based on pBR322 plasmid as a template.
Each of the sample solutions was reacted at 37° C. for 120 minutes, 60 minutes, or 30 minutes using a thermal cycler (StepOnePlus, Applied Biosystems).
After the completion of the reaction, two gels respectively having the sample solutions applied thereon prepared, and PAGE (Poly-Acrylamide Gel Electrophoresis) was carried out on the gels simultaneously under the following conditions. […]
After the completion of the electrophoresis, one of the gel was subjected to fluorescence staining (GelGreen Nucleic Acid Stain 10,000×, Biotium) for staining a nucleic acid, and the other gel was subjected to silver staining (EzStain Silver, ATTO corporation) for staining a nucleic acid and a protein simultaneously. […]

[4] = tested on: Target double-stranded DNA (DNA-1), 203-bp PCR product from pBR322 plasmid; experiment: Strand invasion in the absence of SSB, gel shift assay; conditions: no SSB
Text: as §1
The reaction was carried out using a thermal cycler (StepOnePlus, Applied Biosystems), in which each of the sample solutions was cooled from 94° C. to 54° C. at a cooling rate of 2° C./30 seconds or was kept at 37° C. for a certain period (24 hours, 48 hours).
The condition that the sample solution was cooled from 94° C. to 54° C. at a cooling rate of 2° C./30 seconds was a condition where a target double-stranded DNA (in this case, a 203-bp PCR product) can be converted to a single strand by the action of a heat energy and strand invasion can be caused by cooling slowly. Therefore, the condition simulated the use in a gene analysis technique.
The condition that temperature is kept at 37° C. for a certain period simulated an in vivo reaction, and therefore simulated the use in a nucleic acid medicine or genome edition.
The same procedures as in the step (3) above were carried out. In this experiment, only the staining using GelGreen (fluorescence staining) was carried out.
The reaction was carried out using a thermal cycler (StepOnePlus, Applied Biosystems), in which each of the sample solutions was cooled from 94° C. to 54° C. at a cooling rate of 2° C./30 seconds.

Substance	Tm [1]	Tm [2]	occurrence of strand invasion [3]	occurrence of strand invasion ([4]; oligonucleotide 100 nM (3.3 equivalents), DNA-1 30 nM, cooled from 94° C. to 54° C. or left at 37° C.)	occurrence of strand invasion (comparison of strand invasion functionality) ([4]; oligonucleotide 100 nM, DNA-1 30 nM, cooled from 94° C. to 54° C. or kept at 37° C. (24 hours, 48 hours))	occurrence of strand invasion into the sequence for wild-type ([4]; oligonucleotide 200 nM, DNA-1 15 nM, cooled from 94° C. to 54° C. or kept at 37° C. (24 hours, 48 hours))
5′-d(GCGTTTTTTGCT)-3′: unmodified DNA antisense strand, SEQ ID NO: 5 (unmodified DNA)	52 °C	48 °C and 52 °C				
PNA20: PNA 20-mer H-(Lys)ggcatgttcatcatcagtaa(Lys)-NH2 (GGCATGTTCATCATCAGTAA; all peptide nucleic acid (PNA); Lys residue at N- and C-terminus, C-terminal amide)			observed	the occurrence of strand invasion was not confirmed	the occurrence of strand invasion was not observed	did not cause strand invasion
